From patent US5372816A, “Trehalostatin and process for the preparation thereof” (Suntory Limited, priority 1989, dated 1994)

Tests used:
[1] = system: avicelase (Asp. aculeatus); assay: Enzyme inhibition spectrum: avicelase (Asp. aculeatus); type: biochemical; design: key: ++: ID50 ≤ 1.0 μg; +: ID50 ≥ 1.0 μg; -: no inhibition; conditions: enzyme 2000 μg; pH 5.0, 0.5% avicel; measuring method C
Experimental: (§1) Each enzyme (200 μl) is incubated with Trehalostatin (0.01-50 μg) in 0.05 M acetate (pH 5-6) or phosphate (pH 6-7) buffer solution at 37° C. for 5 minutes. Then 20 μl of the resulting solution is collected and added with a substrate to a final concentration shown in the Table, making the total volume of the solution 100 μl. The mixture is incubated at 37° C. for 10 minutes and then incubated in a boiling water bath for 3 minutes to terminate the reaction.
(§2) Determination of activity was made by measuring the increase of the product in the reaction system according to the following methods A-C.
(§3) The quantity of Trehalostatin which can effect 50% inhibition of enzyme activity under the above-described conditions was indicated as ID50.
(§4) (C) The increase of an amount of reducing sugar produced was measured according to the method shown in J. A. Thoma et al., The Enzyme, 3rd. ed., Ch. 5, pp. 115-189 (1971).

[2] = target: Bacterial saccharifying amylase (Bacillus subtilis, UniProt P00691); assay: Enzyme inhibition spectrum: bacterial saccharifying amylase; type: biochemical; design: key: ++: ID50 ≤ 1.0 μg; +: ID50 ≥ 1.0 μg; -: no inhibition; conditions: enzyme 4 μg; pH 5.0, 0.5% starch; measuring method C
Bacterial saccharifying amylase, sequence (P00691 42-659): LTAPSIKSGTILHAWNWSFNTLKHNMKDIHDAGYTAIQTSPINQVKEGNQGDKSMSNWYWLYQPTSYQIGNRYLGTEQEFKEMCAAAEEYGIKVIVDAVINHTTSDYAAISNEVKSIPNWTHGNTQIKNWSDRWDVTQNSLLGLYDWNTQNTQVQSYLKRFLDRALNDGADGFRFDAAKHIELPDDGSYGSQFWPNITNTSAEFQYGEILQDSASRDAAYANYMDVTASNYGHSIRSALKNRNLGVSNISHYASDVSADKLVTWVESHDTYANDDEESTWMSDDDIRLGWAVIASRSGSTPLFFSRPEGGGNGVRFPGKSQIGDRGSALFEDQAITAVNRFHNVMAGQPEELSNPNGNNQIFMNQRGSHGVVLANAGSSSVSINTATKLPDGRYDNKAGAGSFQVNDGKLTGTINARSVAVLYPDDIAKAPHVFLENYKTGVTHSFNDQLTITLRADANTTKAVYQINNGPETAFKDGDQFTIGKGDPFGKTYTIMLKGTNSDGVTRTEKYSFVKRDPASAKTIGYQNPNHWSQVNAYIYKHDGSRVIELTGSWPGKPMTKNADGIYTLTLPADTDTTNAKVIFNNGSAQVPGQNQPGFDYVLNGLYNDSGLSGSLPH
Experimental: as §1, §2, §3, §4

[3] = target: Bacterial liquefying amylase (Bacillus amyloliquefaciens, UniProt P00692); assay: Enzyme inhibition spectrum: bacterial liquefying amylase; type: biochemical; design: key: ++: ID50 ≤ 1.0 μg; +: ID50 ≥ 1.0 μg; -: no inhibition; conditions: enzyme 0.4 μg; pH 5.0, 0.5% starch; measuring method C
Bacterial liquefying amylase, sequence (P00692 32-514): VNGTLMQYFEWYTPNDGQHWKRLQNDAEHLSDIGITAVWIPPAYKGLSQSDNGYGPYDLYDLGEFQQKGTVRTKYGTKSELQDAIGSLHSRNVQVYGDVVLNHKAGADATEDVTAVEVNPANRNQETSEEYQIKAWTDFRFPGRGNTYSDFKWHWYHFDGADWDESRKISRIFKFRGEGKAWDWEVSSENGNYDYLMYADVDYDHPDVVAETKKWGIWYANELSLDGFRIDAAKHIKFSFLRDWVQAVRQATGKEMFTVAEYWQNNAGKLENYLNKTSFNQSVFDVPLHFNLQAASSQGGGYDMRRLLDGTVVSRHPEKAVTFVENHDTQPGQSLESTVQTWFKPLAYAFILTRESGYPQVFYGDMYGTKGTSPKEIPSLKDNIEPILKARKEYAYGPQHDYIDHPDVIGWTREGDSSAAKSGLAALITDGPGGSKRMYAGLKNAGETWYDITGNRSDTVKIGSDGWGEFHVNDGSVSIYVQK
Experimental: as §1, §2, §3, §4

β-amylase (sweet potato) = target: T1, β-amylase (sweet potato) (Ipomoea batatas, UniProt P10537); assay: Enzyme inhibition spectrum: β-amylase (sweet potato); type: biochemical; design: key: ++: ID50 ≤ 1.0 μg; +: ID50 ≥ 1.0 μg; -: no inhibition; conditions: enzyme 12.5 μg; pH 5.0, 0.5% starch; measuring method C
T1 construct: purchased Sigma; host or cells: sweet potato
T1 sequence (P10537 whole entry): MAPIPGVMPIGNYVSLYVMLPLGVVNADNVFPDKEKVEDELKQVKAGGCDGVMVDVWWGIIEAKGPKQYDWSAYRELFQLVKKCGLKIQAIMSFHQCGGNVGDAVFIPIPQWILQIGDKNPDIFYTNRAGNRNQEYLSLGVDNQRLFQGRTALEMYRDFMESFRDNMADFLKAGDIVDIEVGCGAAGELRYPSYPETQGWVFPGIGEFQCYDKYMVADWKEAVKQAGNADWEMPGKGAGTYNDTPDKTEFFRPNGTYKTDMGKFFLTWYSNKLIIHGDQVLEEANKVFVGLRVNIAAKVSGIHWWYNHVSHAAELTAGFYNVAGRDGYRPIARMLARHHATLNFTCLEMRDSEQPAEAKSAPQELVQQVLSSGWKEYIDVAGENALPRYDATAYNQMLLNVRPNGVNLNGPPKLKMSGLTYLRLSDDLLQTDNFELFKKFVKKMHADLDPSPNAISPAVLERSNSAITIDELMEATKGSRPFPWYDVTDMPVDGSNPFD
Experimental: as §1, §2, §3, §4

[4] = system: Invertase (bovine colonic mucosa); assay: Enzyme inhibition spectrum: invertase (bovine colonic mucosa); type: biochemical; design: key: ++: ID50 ≤ 1.0 μg; +: ID50 ≥ 1.0 μg; -: no inhibition; conditions: enzyme 5000 μg; pH 6.0, 0.1% sucrose; measuring method A
Experimental: as §1, §2, §3
(§5) (A) The glucose produced was determined by the new blood sugar test devised by Boehringer-Mannheim Ltd.

Taka-amylase A (yeast) = target: T2, Taka-amylase A (yeast) (Saccharomyces cerevisiae, UniProt P00724); assay: Enzyme inhibition spectrum: Taka-amylase A (yeast), sucrose substrate; type: biochemical; design: key: ++: ID50 ≤ 1.0 μg; +: ID50 ≥ 1.0 μg; -: no inhibition; conditions: enzyme 100 μg; pH 5.5, 0.1% sucrose; measuring method A
T2 sequence (P00724 20-532): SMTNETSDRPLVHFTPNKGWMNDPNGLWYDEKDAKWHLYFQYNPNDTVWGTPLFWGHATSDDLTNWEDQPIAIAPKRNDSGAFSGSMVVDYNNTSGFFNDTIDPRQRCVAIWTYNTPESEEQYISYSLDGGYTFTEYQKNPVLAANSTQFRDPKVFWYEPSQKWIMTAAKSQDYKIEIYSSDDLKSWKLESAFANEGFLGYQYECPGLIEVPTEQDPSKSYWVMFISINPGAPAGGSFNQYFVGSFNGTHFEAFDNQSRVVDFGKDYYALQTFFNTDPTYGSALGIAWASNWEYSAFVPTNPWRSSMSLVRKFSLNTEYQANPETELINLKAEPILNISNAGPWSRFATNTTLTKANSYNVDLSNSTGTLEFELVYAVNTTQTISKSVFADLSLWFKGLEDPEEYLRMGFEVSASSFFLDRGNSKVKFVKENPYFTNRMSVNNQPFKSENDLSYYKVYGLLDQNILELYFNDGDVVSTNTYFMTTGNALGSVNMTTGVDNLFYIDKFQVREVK
Experimental: as §1, §2, §3, §5

Taka-amylase A = target: T3, Taka-amylase A (Aspergillus oryzae, UniProt P0C1B3); assay: Enzyme inhibition spectrum: Taka-amylase A, starch substrate; type: biochemical; design: key: ++: ID50 ≤ 1.0 μg; +: ID50 ≥ 1.0 μg; -: no inhibition; conditions: enzyme 0.5 μg; pH 5.5, 0.5% starch; measuring method printed 69
T3 construct: purchased SANKYO Co., Ltd
Experimental: as §1, §2, §3

[5] = system: Carboxymethyl-cellulase (Asp. aculeatus); assay: Enzyme inhibition spectrum: carboxymethyl-cellulase (Asp. aculeatus); type: biochemical; design: key: ++: ID50 ≤ 1.0 μg; +: ID50 ≥ 1.0 μg; -: no inhibition; conditions: enzyme 100 μg; pH 5.0, 0.5% CM cellulose; measuring method C
Experimental: as §1, §2, §3, §4

Isoamylase = target: T4, Isoamylase (Pseudomonas amyloderamosa, UniProt P10342); assay: Enzyme inhibition spectrum: isoamylase; type: biochemical; design: key: ++: ID50 ≤ 1.0 μg; +: ID50 ≥ 1.0 μg; -: no inhibition; conditions: enzyme 100 μg; pH 5.5, 0.5% starch; measuring method C
T4 construct: purchased Shin Nippon Kagaku Co., Ltd
T4 sequence (P10342 27-776): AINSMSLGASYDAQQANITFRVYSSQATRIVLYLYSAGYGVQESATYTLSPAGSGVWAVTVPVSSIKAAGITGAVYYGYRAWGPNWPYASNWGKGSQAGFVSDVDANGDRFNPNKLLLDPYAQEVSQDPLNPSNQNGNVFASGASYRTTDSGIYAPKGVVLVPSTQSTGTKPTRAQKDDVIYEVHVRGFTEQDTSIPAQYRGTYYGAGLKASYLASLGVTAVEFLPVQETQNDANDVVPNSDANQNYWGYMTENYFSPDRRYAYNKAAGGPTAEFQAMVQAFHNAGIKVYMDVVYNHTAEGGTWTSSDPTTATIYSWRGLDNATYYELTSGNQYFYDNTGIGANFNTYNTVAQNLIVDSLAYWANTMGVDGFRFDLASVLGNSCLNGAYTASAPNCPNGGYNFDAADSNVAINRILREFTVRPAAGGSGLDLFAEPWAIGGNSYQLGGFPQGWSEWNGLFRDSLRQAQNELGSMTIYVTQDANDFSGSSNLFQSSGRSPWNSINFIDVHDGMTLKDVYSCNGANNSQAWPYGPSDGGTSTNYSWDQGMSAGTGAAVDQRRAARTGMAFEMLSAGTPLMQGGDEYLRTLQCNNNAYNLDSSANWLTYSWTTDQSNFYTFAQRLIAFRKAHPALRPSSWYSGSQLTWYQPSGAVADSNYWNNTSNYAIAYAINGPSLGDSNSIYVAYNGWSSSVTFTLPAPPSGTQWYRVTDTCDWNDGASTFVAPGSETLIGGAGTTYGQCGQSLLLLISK
Experimental: as §1, §2, §3, §4

[6] = Solubility of Trehalostatin; type: physicochemical

In the case of `OC[C@H]1O[C@H](N=C2NC3C(O2)C(O)C(O)C3(O)CO)[C@H](O)[C@@H](O)[C@@H]1O` (some centres unmarked) [Trehalostatin], the “Action (ID50)” value [1] is reported as “-”, the “Action (ID50)” value [2] is reported as “-” and the “Action (ID50)” value [3] is reported as “-”. The “Action (ID50)” value (β-amylase (sweet potato)) was “-”, the “Action (ID50)” value [4] was “-” and the “Action (ID50)” value (Taka-amylase A (yeast)) was “-”. For the same molecule, the “Action (ID50)” value (Taka-amylase A) was “-”, the “Action (ID50)” value [5] was “-” and the “Action (ID50)” value (Isoamylase) was “-”. The Solubility ([6]; in hexane, benzene, ethers and petroleum ether) was “hardly or only slightly soluble” and the Solubility ([6]; in water) was “soluble in water”.
